Drawing on patent US8207177B2, “Inhibitors of E1 activating enzymes” (Millennium Pharmaceuticals, Inc., priority 2006, dated 2012), this text covers IC50 for 19 molecules.

pIC50: −log10 of the molar value.

In the assay the target is T1, recombinant human NAE enzyme (Homo sapiens, UniProt Q8TBC4).
T1 construct: His (N); made in house; host or cells: Sf9 insect cells (baculovirus, Bac-to-Bac), purified on Ni-NTA
T1 sequence (Q8TBC4 1-463): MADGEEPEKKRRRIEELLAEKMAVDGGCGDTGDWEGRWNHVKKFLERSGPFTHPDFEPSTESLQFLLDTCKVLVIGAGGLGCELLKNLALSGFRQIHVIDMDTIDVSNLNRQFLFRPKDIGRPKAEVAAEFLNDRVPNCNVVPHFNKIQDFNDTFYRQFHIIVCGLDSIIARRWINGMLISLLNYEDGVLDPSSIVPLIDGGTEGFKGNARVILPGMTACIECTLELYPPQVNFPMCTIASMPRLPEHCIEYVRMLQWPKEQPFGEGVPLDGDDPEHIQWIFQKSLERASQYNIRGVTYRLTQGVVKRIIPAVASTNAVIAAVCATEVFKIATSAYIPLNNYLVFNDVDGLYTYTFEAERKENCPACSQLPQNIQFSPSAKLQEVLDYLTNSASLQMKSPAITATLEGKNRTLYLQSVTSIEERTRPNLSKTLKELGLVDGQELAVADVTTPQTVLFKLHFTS
T1 sequence (Q13564 1-534 partner): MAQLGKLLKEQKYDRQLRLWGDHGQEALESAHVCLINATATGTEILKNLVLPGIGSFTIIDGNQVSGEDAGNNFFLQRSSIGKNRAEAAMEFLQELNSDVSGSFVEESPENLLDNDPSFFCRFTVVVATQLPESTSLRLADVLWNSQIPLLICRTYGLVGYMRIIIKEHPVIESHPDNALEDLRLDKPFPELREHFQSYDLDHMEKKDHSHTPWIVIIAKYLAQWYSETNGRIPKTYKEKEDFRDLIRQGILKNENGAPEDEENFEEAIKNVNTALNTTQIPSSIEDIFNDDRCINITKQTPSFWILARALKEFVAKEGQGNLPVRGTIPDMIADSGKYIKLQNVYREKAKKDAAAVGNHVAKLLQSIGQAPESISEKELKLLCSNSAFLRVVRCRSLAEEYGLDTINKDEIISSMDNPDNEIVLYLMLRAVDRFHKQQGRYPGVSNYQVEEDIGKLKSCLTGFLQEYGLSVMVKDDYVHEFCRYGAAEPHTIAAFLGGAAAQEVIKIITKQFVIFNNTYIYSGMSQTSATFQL
The experiment in a line: Nedd8-Activating Enzyme (NAE) HTRF Assay. In kind it is biochemical. The note with it: threshold statement: less than or equal to 100 nM; 20 μM ATP, 90 minutes at 24° C. As for the experimental part:
Following manufacturer instructions, baculoviruses were generated with the Bac-to-Bac Expression System (Invitrogen) for the following proteins: untagged NAEα (APPBP1; NP_003896.1), N-terminally His-tagged NAEβ (UBE1C; NP_003959.3), untagged SAEα (SAE1; NP_005491.1), N-terminally His-tagged SAEβ (UBA2; NP_005490.1), N-terminally His-tagged murine UAE (UBE1X; NP_033483). NAEα/His-NAEβ and SAEα/His-SAEβ complexes were generated by co-infection of Sf9 cells, which were harvested after 48 hours. His-mUAE was generated by single infection of Sf9 cells and harvested after 72 hours. Expressed proteins were purified by affinity chromatography (Ni—NTA agarose, Qiagen) using standard buffers. Ubc12 (UBE2M; NP_003960.1), Ubc9 (UBE2I; NP_003336.1), Ubc2 (UBE2A; NP_003327.2) were subcloned into pGEX (Pharmacia) and expressed as N-terminally GST tagged fusion proteins in E. coli. Expressed proteins were purified by conventional affinity chromatography using standard buffers. Nedd8 (NP_006147), Sumo-1 (NP_003343) and Ubiquitin (with optimized codons) were subcloned into pFLAG-2 (Sigma) and expressed as N-terminally Flag tagged fusion proteins in E. coli. Expressed proteins were purified by conventional chromatography using standard buffers. Nedd8-Activating Enzyme (NAE) HTRF Assay. The NAE enzymatic reaction totaled 50 μL and contained 50 mM HEPES (pH 7.5), 0.05% BSA, 5 mM MgCl2, 20 μM ATP, 250 μM GSH, 0.01 μM Ubc12-GST, 0.075 μM Nedd8-Flag and 0.28 nM recombinant human NAE enzyme. The enzymatic reaction mixture, with and without compound inhibitor, was incubated at 24° C. for 90 minutes in a 384-well plate before termination with 25 μL of Stop/Detection buffer (0.1M HEPES pH 7.5, 0.05% Tween20, 20 mM EDTA, 410 mM KF, 0.53 nM Europium-Cryptate labeled monoclonal anti-FLAG M2 antibody (CisBio International) and 8.125 μg/mL PHYCOLINK goat anti-GST allophycocyanin (XL-APC) antibody (Prozyme)). After incubation for 3 hours at 24° C., quantification of the FRET was performed on the Analyst™ HT 96.384 (Molecular Devices).
(Time-resolved FRET reads energy transfer from a long-lived donor to a nearby acceptor.)

For `NS(=O)(=O)OC[C@@H]1C[C@@H](n2ccc3c(N[C@H]4CCc5c(Br)cccc54)ncnc32)C[C@@H]1O` [Compound I-65, [(1S,2S,4R)-4-(4-{[(1S)-4-bromo-2,3-dihydro-1H-inden-1-yl]amino}-7H-pyrrolo[2,3-d]pyrimidin-7-yl)-2-hydroxycyclopentyl]methyl sulfamate], the negative-log IC50 (pIC50) is no less than 7.00.

For `NS(=O)(=O)OC[C@@H]1C[C@@H](n2ccc3c(Nc4ccccc4)ncnc32)C[C@@H]1O` [Compound I-39, [(1S,2S,4R)-4-(4-anilino-7H-pyrrolo[2,3-d]pyrimidin-7-yl)-2-hydroxycyclopentyl]methyl sulfamate], the pIC50 is no less than 7.00.

On to `NS(=O)(=O)OC[C@@H]1C[C@@H](n2ccc3c(NCc4cc(Cl)cc(Cl)c4)ncnc32)C[C@@H]1O` [Compound I-16, ((1S,2S,4R)-4-{4-[(3,5-dichlorobenzyl)amino]-7H-pyrrolo[2,3-d]pyrimidin-7-yl}-2-hydroxycyclopentyl)methyl sulfamate], for which the pIC50 was no less than 7.00.

Turning to `NS(=O)(=O)OC[C@@H]1C[C@@H](n2ccc3c(N[C@H]4CCc5c(F)cccc54)ncnc32)C[C@@H]1O` [Compound I-61, [(1S,2S,4R)-4-(4-{[(1S)-4-fluoro-2,3-dihydro-1H-inden-1-yl]amino}-7H-pyrrolo[2,3-d]pyrimidin-7-yl)-2-hydroxycyclopentyl]methyl sulfamate], the pIC50 was no less than 7.00.

For the molecule `NS(=O)(=O)OC[C@@H]1C[C@@H](n2ccc3c(N[C@H]4CCCc5ccccc54)ncnc32)C[C@@H]1O` [Compound I-37, ((1S,2S,4R)-2-hydroxy-4-{4-[(1S)-1,2,3,4-tetrahydronaphthalen-1-ylamino]-7H-pyrrolo[2,3-d]pyrimidin-7-yl}cyclopentyl)methyl sulfamate], the pIC50 was no less than 7.00.

As to `C#Cc1cn([C@@H]2C[C@@H](COS(N)(=O)=O)[C@@H](O)C2)c2ncnc(C)c12` [Compound I-44, [(1S,2S,4R)-4-(5-ethynyl-4-methyl-7H-pyrrolo[2,3-d]pyrimidin-7-yl)-2-hydroxycyclopentyl]methyl sulfamate], the pIC50 is no less than 7.00.

Consider `COC[C@H]1Cc2ccccc2C1Nc1ncnc2c1ccn2[C@@H]1C[C@@H](COS(N)(=O)=O)[C@@H](O)C1` (stereo in doubt) [Compound I-80, [(1S,2S,4R)-2-hydroxy-4-(4-{[(1S,2S)-2-(methoxymethyl)-2,3-dihydro-1H-inden-1-yl]amino}-7H-pyrrolo[2,3-d]pyrimidin-7-yl)cyclopentyl]methyl sulfamate], for which the negative logarithm of the IC50 (pIC50) was no less than 7.00.

In the case of `C[C@]1(O)C[C@H](n2ccc3c(N[C@H]4CCc5ccccc54)ncnc32)C[C@H]1COS(N)(=O)=O` [Compound I-30, ((1S,2S,4R)-4-{4-[(1S)-2,3-dihydro-1H-inden-1-ylamino]-7H-pyrrolo[2,3-d]-pyrimidin-7-yl}-2-hydroxy-2-methylcyclopentyl)methyl sulfamate], the negative logarithm of the IC50 (pIC50) was no less than 7.00.

As to `NS(=O)(=O)OC[C@@H]1C[C@@H](n2ccc3c(N[C@H]4CCc5cc(Br)ccc54)ncnc32)C[C@@H]1O` [Compound I-33, [(1S,2S,4R)-4-(4-{[(1S)-5-bromo-2,3-dihydro-1H-inden-1-yl]amino}-7H-pyrrolo-[2,3-d]pyrimidin-7-yl)-2-hydroxycyclopentyl]methyl sulfamate], the pIC50 was no less than 7.00.

Take `NS(=O)(=O)OC[C@@H]1C[C@@H](n2ccc3c(NCC4CCCCC4)ncnc32)C[C@@H]1O` [Compound I-29, ((1S,2S,4R)-4-{4-[(cyclohexylmethyl)amino]-7H-pyrrolo[2,3-d]pyrimidin-7-yl)-2-hydroxycyclopentyl)methyl sulfamate]: the pIC50 is no less than 7.00.

Turning to `COc1ccccc1CNc1ncnc2c1ccn2[C@@H]1C[C@@H](COS(N)(=O)=O)[C@@H](O)C1` [Compound I-43, ((1S,2S,4R)-2-hydroxy-4-{4-[(2-methoxybenzyl)amino]-7H-pyrrolo[2,3-d]-pyrimidin-7-yl)cyclopentyl)methyl sulfamate], the pIC50 was no less than 7.00.

As to `NS(=O)(=O)OC[C@@H]1C[C@@H](n2ccc3c(N[C@H]4CCc5cc(F)ccc54)ncnc32)C[C@@H]1O` [Compound I-36, [(1S,2S,4R)-4-(4-{[(1S)-5-fluoro-2,3-dihydro-1H-inden-1-yl]amino}-7H-pyrrolo-[2,3-d]pyrimidin-7-yl)-2-hydroxycyclopentyl]methyl sulfamate], the pIC50 was no less than 7.00.

Regarding `C[C@H]1Cc2ccccc2[C@H]1Nc1ncnc2c1ccn2[C@@H]1C[C@@H](COS(N)(=O)=O)[C@@H](O)C1` [Compound I-82, [(1S,2S,4R)-2-hydroxy-4-(4-{[(1S,2S)-2-methyl-2,3-dihydro-1H-inden-1-yl]amino}-7H-pyrrolo[2,3-d]pyrimidin-7-yl)cyclopentyl]methyl sulfamate], the pIC50 is no less than 7.00.

Regarding `CC(C)O[C@H]1Cc2ccccc2[C@H]1Nc1ncnc2c1ccn2[C@@H]1C[C@@H](COS(N)(=O)=O)[C@@H](O)C1` [Compound I-54, [(1S,2S,4R)-2-hydroxy-4-(4-{[(1R,2S)-2-isopropoxy-2,3-dihydro-1H-inden-1-yl]-amino}-7H-pyrrolo[2,3-d]pyrimidin-7-yl)cyclopentyl]methyl sulfamate], the pIC50 is no less than 7.00.

Turning to `NS(=O)(=O)OC[C@@H]1C[C@@H](n2cc(F)c3c(N[C@H]4CCc5ccccc54)ncnc32)C[C@@H]1O` [Compound I-68, ((1S,2S,4R)-4-{4-[(1S)-2,3-dihydro-1H-inden-1-ylamino]-5-fluoro-7H-pyrrolo[2,3-d]pyrimidin-7-yl}-2-hydroxycyclopentyl)methyl sulfamate], the negative logarithm of the IC50 (pIC50) was no less than 7.00.

For `NS(=O)(=O)OC[C@@H]1C[C@@H](n2ccc3c(NCc4ccc(Cl)cc4Cl)ncnc32)C[C@@H]1O` [Compound I-19, ((1S,2S,4R)-4-{4-[(2,4-dichlorobenzyl)amino]-7H-pyrrolo[2,3-d]pyrimidin-7-yl}-2-hydroxycyclopentyl)methyl sulfamate], the pIC50 is no less than 7.00.

Regarding `Nc1ncnc2c1ccn2[C@@H]1C[C@@H](COS(N)(=O)=O)[C@@H](O)C1` [Compound I-18, [(1S,2S,4R)-4-(4-amino-7H-pyrrolo[2,3-d]pyrimidin-7-yl)-2-hydroxycyclopentyl]methyl sulfamate], the pIC50 was no less than 7.00.

As for `CO[C@H]1Cc2ccccc2[C@H]1Nc1ncnc2c1ccn2[C@@H]1C[C@@H](COS(N)(=O)=O)[C@@H](O)C1` [Compound I-52, [(1S,2S,4R)-2-hydroxy-4-(4-{[(1R,2S)-2-methoxy-2,3-dihydro-1H-inden-1-yl]-amino}-7H-pyrrolo[2,3-d]pyrimidin-7-yl)cyclopentyl]methyl sulfamate], the negative-log IC50 (pIC50) was no less than 7.00.

For the molecule `NS(=O)(=O)OC[C@@H]1C[C@@H](n2ccc3c(NCc4ccc(Cl)cc4)ncnc32)C[C@@H]1O` [Compound I-45, ((1S,2S,4R)-4-{4-[(4-chlorobenzyl)amino]-7H-pyrrolo[2,3-d]pyrimidin-7-yl}-2-hydroxycyclopentyl)methyl sulfamate], the pIC50 was no less than 7.00.

By pIC50 is commonly meant −log10 of the IC50, conventionally taken in molar units.
